Results: patent publication US20220151236A1, “NOVEL OXADIAZOLE COMPOUNDS FOR CONTROLLING OR PREVENTING PHYTOPATHOGENIC FUNGI” (PI INDUSTRIES LTD., priority 2019, published 2022)

Assays:
Pyricularia Oryzae = experiment: microbe, parasite or virus in culture; type: cell-based; conditions: 168 h, read-out: control (radial growth compared to the untreated check)
Phakopsora pachyrhizi = Phakopsora pachyrhizi Test on Soybean (preventive activity, greenhouse); type: in vivo; conditions: preventive spray on young Soybean plants, inoculated one day after treatment, rated 3, 7, 10 and 15 days after application, read-out: Efficacy (% control), disease severity compared to the untreated check
Outline: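 Preventive greenhouse test: young soybean plants sprayed with compound in 2% DMSO/acetone plus emulsified water at stated rates, inoculated one day later with 2×10^5 P. pachyrhizi conidia, held at 22-24° C and 80-90% RH. Disease severity (0-100%) rated 3, 7, 10 and 15 days after application; % control relative to untreated plants.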

Colletotrichum capsici = Colletotrichum capsici (Anthracnose): radial mycelial growth on potato dextrose agar; type: cell-based; conditions: Colletotrichum truncatum, 168 h, 25° C., 60% relative humidity, seven days, read-out: control (radial growth compared to the untreated check)
Botrytis cinerea = Botrytis cinerea (Gray Mold): radial mycelial growth on potato dextrose agar; type: cell-based; conditions: 300 ppm, 22° C., 90% relative humidity, seven days
Alternaria solani = Alternaria solani (Early Blight of Tomato/Potato): radial mycelial growth on potato dextrose agar; type: cell-based; conditions: 168 h, potato dextrose agar, 25° C., 60% relative humidity, seven days, read-out: control (radial growth compared to the untreated check)
Experimental: Compounds were dissolved in 0.3% dimethyl sulfoxide and then added to potato dextrose agar medium just prior to dispensing it into petri dishes. 5 mL medium with the compound in the desired concentration was dispensed into 60 mm sterile petri-plates. After solidification each plate was seeded with a 5 mm size mycelial disc taken from the periphery of an actively growing virulent culture plate. Plates were incubated in growth chambers at 25° C. temperature and 60% relative humidity for seven days and then the radial growth was measured and compared to that of the untreated control. Compounds 2 85 89 92 94 108 113 114 131 138 142 143

Q: Which results are given for `O=C(c1cn2ccc(-c3noc(C(F)(F)F)n3)cc2n1)N1CCC1` [Compound 33, azetidin-1-yl(7-(5-(trifluoromethyl)-1,2,4-oxadiazol-3-yl)imidazo[1,2-a]pyridin-2-yl)methanone]?
A: inhibition of growth at 300 ppm (Pyricularia Oryzae): ≥ 70%; pest or weed control at 500 ppm (Phakopsora pachyrhizi): ≥ 70%

Q: How did the inhibition of growth at 300 ppm (Colletotrichum capsici) turn out when `COc1cccc(SCc2cn3ccc(-c4noc(C(F)(F)F)n4)cc3n2)c1` [Compound 46, 3-(2-(((3-methoxyphenyl)thio)methyl)imidazo[1,2-a]pyridin-7-yl)-5-(trifluoromethyl)-1,2,4-oxadiazole] was run?
A: ≥ 70%

Q: What about the pest or weed control at 500 ppm (Phakopsora pachyrhizi) of the same molecule?
A: ≥ 70%

Q: How did the inhibition of growth at 300 ppm (Colletotrichum capsici) turn out when `FC(F)(F)c1nc(-c2ccn3cc(CSc4ccccc4)nc3c2)no1` [Compound 50, 3-(2-((phenylthio)methyl)imidazo[1,2-a]pyridin-7-yl)-5-(trifluoromethyl)-1,2,4-oxadiazole] was run?
A: ≥ 70%

Q: Which inhibition of growth at 300 ppm (Colletotrichum capsici) does the source give for `COCCNC(=O)c1cn2cc(-c3noc(C(F)(F)F)n3)ccc2n1` [Compound 65, N-(2-methoxyethyl)-6-(5-(trifluoromethyl)-1,2,4-oxadiazol-3-yl)imidazo[1,2-a]pyridine-2-carboxamide] here?
A: ≥ 70%

Q: What about the pest or weed control at 500 ppm (Phakopsora pachyrhizi) of the same molecule?
A: ≥ 70%

Q: What does the source list for `O=C(c1cn2cc(-c3noc(C(F)(F)F)n3)ccc2n1)N1CCC1` [Compound 69, azetidin-1-yl(6-(5-(trifluoromethyl)-1,2,4-oxadiazol-3-yl)imidazo[1,2-a]pyridin-2-yl)methanone]?
A: inhibition of growth at 300 ppm (Colletotrichum capsici): ≥ 70%; pest or weed control at 500 ppm (Phakopsora pachyrhizi): ≥ 70%

Q: `CCOCc1cn2cc(-c3noc(C(F)(F)F)n3)ccc2n1` [Compound 80, 3-(2-(ethoxymethyl)imidazo[1,2-a]pyridin-6-yl)-5-(trifluoromethyl)-1,2,4-oxadiazole] was tested. Which “control (radial growth compared to the untreated check)” value (Botrytis cinerea) did it give?
A: ≥ 70%

Q: And the inhibition of growth at 300 ppm (Pyricularia Oryzae)?
A: ≥ 70%

Q: Which results are given for `O=C(NCc1cn2cc(-c3noc(C(F)(F)F)n3)ccc2n1)c1ccccn1` [Compound 87, N-((6-(5-(trifluoromethyl)-1,2,4-oxadiazol-3-yl)imidazo[1,2-a]pyridin-2-yl)methyl)picolinamide]?
A: inhibition of growth at 300 ppm (Pyricularia Oryzae): ≥ 70%; pest or weed control at 500 ppm (Phakopsora pachyrhizi): ≥ 70%

Q: What does the source list for `O=C(NCc1cn2cc(-c3noc(C(F)(F)F)n3)ccc2n1)c1cocn1` [Compound 92, N-((6-(5-(trifluoromethyl)-1,2,4-oxadiazol-3-yl)imidazo[1,2-a]pyridin-2-yl)methyl)oxazole-4-carboxamide]?
A: inhibition of growth at 300 ppm (Alternaria solani): ≥ 70%; inhibition of growth at 300 ppm (Pyricularia Oryzae): ≥ 70%

Q: `FC(F)(F)c1nc(-c2ccc3nc(CSc4cccc(Cl)c4)cn3c2)no1` [Compound 103, 3-(2-(((3-chlorophenyl)thio)methyl)imidazo[1,2-a]pyridin-6-yl)-5-(trifluoromethyl)-1,2,4-oxadiazole] was tested. Which inhibition of growth at 300 ppm (Pyricularia Oryzae) did it give?
A: ≥ 70%

Q: And the pest or weed control at 500 ppm (Phakopsora pachyrhizi)?
A: ≥ 70%

Q: Which inhibition of growth at 300 ppm (Colletotrichum capsici) does the source give for `FC(F)(F)c1nc(-c2ccc3nc(CSc4cc(Cl)cc(Cl)c4)cn3c2)no1` [Compound 111, 3-(2-(((3,5-dichlorophenyl)thio)methyl)imidazo[1,2-a]pyridin-6-yl)-5-(trifluoromethyl)-1,2,4-oxadiazole] here?
A: ≥ 70%

Q: What about the pest or weed control at 500 ppm (Phakopsora pachyrhizi) of the same molecule?
A: ≥ 70%

Q: Which results are given for `CC(C)CSCc1cn2cc(-c3noc(C(F)(F)F)n3)ccc2n1` [Compound 112, 3-(2-((isobutylthio)methyl)imidazo[1,2-a]pyridin-6-yl)-5-(trifluoromethyl)-1,2,4-oxadiazole]?
A: inhibition of growth at 300 ppm (Colletotrichum capsici): ≥ 70%; pest or weed control at 500 ppm (Phakopsora pachyrhizi): ≥ 70%

Q: How did the inhibition of growth at 300 ppm (Alternaria solani) turn out when `FC(F)(F)c1nc(-c2ccc3nc(CSC4CCCC4)cn3c2)no1` [Compound 113, 3-(2-((cyclopentylthio)methyl)imidazo[1,2-a]pyridin-6-yl)-5-(trifluoromethyl)-1,2,4-oxadiazole] was run?
A: ≥ 70%

Q: And the inhibition of growth at 300 ppm (Pyricularia Oryzae)?
A: ≥ 70%

Q: Which inhibition of growth at 300 ppm (Alternaria solani) does the source give for `FC(F)(F)c1nc(-c2ccc3nc(CSC4CCCCC4)cn3c2)no1` [Compound 114, 3-(2-((cyclohexylthio)methyl)imidazo[1,2-a]pyridin-6-yl)-5-(trifluoromethyl)-1,2,4-oxadiazole] here?
A: ≥ 70%

Q: What about the inhibition of growth at 300 ppm (Pyricularia Oryzae) of the same molecule?
A: ≥ 70%

Q: For `O=S(=O)(Cc1cn2cc(-c3noc(C(F)(F)F)n3)ccc2n1)c1ccccc1` [Compound 116, 3-(2-((phenylsulfonyl)methyl)imidazo[1,2-a]pyridin-6-yl)-5-(trifluoromethyl)-1,2,4-oxadiazole], which inhibition of growth at 300 ppm (Colletotrichum capsici) is on record?
A: ≥ 70%

Q: And the pest or weed control at 500 ppm (Phakopsora pachyrhizi)?
A: ≥ 70%

Q: For `O=S(=O)(Cc1cn2cc(-c3noc(C(F)(F)F)n3)ccc2n1)c1ccc(Cl)c(Cl)c1` [Compound 117, 3-(2-(((3,4-dichlorophenyl)sulfonyl)methyl)imidazo[1,2-a]pyridin-6-yl)-5-(trifluoromethyl)-1,2,4-oxadiazole], which inhibition of growth at 300 ppm (Colletotrichum capsici) is on record?
A: ≥ 70%

Q: What does the source list for `COc1ccc(S(C)(=O)=NC(=O)Cc2cn3cc(-c4noc(C(F)(F)F)n4)ccc3n2)cc1` (stereo not shown) [Compound 138, N-((4-methoxyphenyl)(methyl)(oxo)-λ^6-sulfaneylidene)-2-(6-(5-(trifluoromethyl)-1,2,4-oxadiazol-3-yl)imidazo[1,2-a]pyridin-2-yl)acetamide]?
A: inhibition of growth at 300 ppm (Alternaria solani): ≥ 70%; inhibition of growth at 300 ppm (Pyricularia Oryzae): ≥ 70%

Q: How did the inhibition of growth at 300 ppm (Alternaria solani) turn out when `CS(=O)(=NC(=O)Cc1cn2cc(-c3noc(C(F)(F)F)n3)ccc2n1)c1ccc(Br)cc1` (stereo not shown) [Compound 142, N-((4-bromophenyl)(methyl)(oxo)-λ^6-sulfaneylidene)-2-(6-(5-(trifluoromethyl)-1,2,4-oxadiazol-3-yl)imidazo[1,2-a]pyridin-2-yl)acetamide] was run?
A: ≥ 70%

Q: What about the inhibition of growth at 300 ppm (Pyricularia Oryzae) of the same molecule?
A: ≥ 70%

Q: How did the inhibition of growth at 300 ppm (Alternaria solani) turn out when `COc1ccnc(S(C)(=O)=NC(=O)Cc2cn3cc(-c4noc(C(F)(F)F)n4)ccc3n2)c1` (stereo not shown) [Compound 146, N-((4-methoxypyridin-2-yl)(methyl)(oxo)-λ^6-sulfaneylidene)-2-(6-(5-(trifluoromethyl)-1,2,4-oxadiazol-3-yl)imidazo[1,2-a]pyridin-2-yl)acetamide] was run?
A: ≥ 70%

Q: What about the inhibition of growth at 300 ppm (Pyricularia Oryzae) of the same molecule?
A: ≥ 70%
